Marks after values point to notes of the source that are not given here.
What was measured:
Assay type in all cases: in vivo, rat (Sprague-Dawley male)
rats fed high fat diet [1] = test: Experiment 5: food intake, change of body weights and food efficiency ratio; conditions: Exp.5 HFD rats
Procedure: (§1) The experimental diets contain either a normal fat (11.7% of calories as fat, AIN-76A diet # 100000, Dyets Inc., Bethlehem, Pa., USA) or a high fat (40% of calories as fat, AIN-76A high fat diet # 100496, Dyets Inc., Bethlehem, Pa., USA) (Table 1). During the test period, food intake and body weight were measured twice a week. Food efficiency ratio was calculated by dividing the increase in body weight during the test period by the food intake during the period.
The rats, aged 6 week-old and weighing 170˜180 g Sprague-Dawley male, were purchased from Samtaco (Seoul, Korea). After the animals were given a standard laboratory diet for 1 week, they were divided two groups each group. Rats were fed two diets: the normal diet (ND, n=8) group and high fat diet (HFD, n=88) group. 6 weeks later, HFD group were subdivided 11 groups (n=8). They were administrated with extract of Aster spathulifolius aerial part orally once a day for 6 weeks. […]
AE-1 20 group: High fat diet+AE-1 (Germacrone) 20 mg/kg
AE-1 10 group: High fat diet+AE-1(Germacrone) 10 mg/kg
AE-1 5 group: High fat diet+AE-1 (Germacrone) 5 mg/kg […]
Experimental diet is same table 1 of experiment 4. Food intake, change of body weights and food efficiency ratio were shown Table 6.

rats fed high fat diet [2] = test: Experiment 4: serum leptin, insulin and glucose; conditions: Exp.4 HFD rats; AE-B 125, AE-C 100, AE-1 10, ABP 1.5 mg/kg once a day 6 weeks
Source text: (§2) The rats, aged 6 week-old and weighing 170˜180 g Sprague-Dawley male, were purchased from Samtaco (Seoul, Korea). After the animals were given a standard laboratory diet for 1 week, they were divided two groups each group. Rats were fed two diets: the normal diet (ND, n=10) group and high fat diet (HFD, n=50) group. 6 weeks later, HFD group were subdivided five groups. They were administrated with extract of Aster spathulifolius aerial part orally once a day for 6 weeks.
(§3) After 12 weeks, rats were anesthetized with ether and sacrificed after 14 h of fasting. Blood samples were collected from hepatic vein and centrifuged (3,000 rpm for 10 min at 4° C.). Serum was frozen at −70° C. for the biochemical analysis. The epididymal and abdominal fat pad were immediately weighed, measured size of adipocyte using microscope.
(§4) Serum leptin and insulin was measured by RIA using Linco leptin assay kit (Linco research Immunoassay, St. Louis, Mo.) and insulin standards (Linco research Immunoassay, St. Louis, Mo.) respectively (FIG. 5).

rats fed high fat diet [3] = test: Experiment 5: levels of lipid in serum; conditions: Exp.5 HFD rats
Procedure: Serum triglyceride (TG), total cholesterol (TC), and HDL-cholesterol (HDL-C) levels were determined using the calorimetric method with commercial kits (Asan Diagnostics, Seoul, Korea). There was no significant difference in serum TG or HDL-C levels, although EASA-treated groups tended to be lower than the HFD-C group (FIG. 4).
(§5) The rats, aged 6 week-old and weighing 170˜180 g Sprague-Dawley male, were purchased from Samtaco (Seoul, Korea). After the animals were given a standard laboratory diet for 1 week, they were divided two groups each group. Rats were fed two diets: the normal diet (ND, n=8) group and high fat diet (HFD, n=88) group. 6 weeks later, HFD group were subdivided 11 groups (n=8). They were administrated with extract of Aster spathulifolius aerial part orally once a day for 6 weeks.
In levels of TG, the HFD groups had similar values to the ND group. EASA treated groups reduced the levels of TG versus the HFD group. […] EASA treated groups reduced the levels of TC versus the HFD and ND group.

rats fed high fat diet [4] = test: Experiment 4: hepatic lipids (TG, TC, FFA); conditions: Exp.4 HFD rats; AE-B 125, AE-C 100, AE-1 10, ABP 1.5 mg/kg once a day 6 weeks
Source text: as §2
(§6) Hepatic lipid was extracted by the method devised by Folch et al. and its content was measured by the same technique used for the serum analysis. […] There was no significant difference in hepatic free fatty acid (FFA) level.

rats fed high fat diet [5] = test: Experiment 4: body weight, food intake and food efficiency ratio of rats fed high fat diet; conditions: Exp.4 HFD rats; orally once a day 6 weeks; AE-B 125, AE-C 100, AE-1 10, ABP 1.5 mg/kg
Source text: as §2
HFD group: High fat diet+0.5% carboxymethycelluose
HFD+AE-B group: High fat diet+AE-B 125 mg/kg
HFD+AE-C group: High fat diet+AE-C 100 mg/kg
HFD+AE-1 group: High fat diet+AE-110 mg/kg
HFD+ABP group: High fat diet+ABP 1.5 mg/kg
as §1

rats fed high fat diet [6] = test: Experiment 5: adipocyte (fat) weight; conditions: Exp.5 HFD rats
Procedure: as §3, §5
Adipocyte weight were determined method of experiment 5. EASA treated groups reduced white adipocyte versus the HFD group, in a dose-dependent manner.

rats fed high fat diet [7] = test: Experiment 5: levels of lipid in liver; conditions: Exp.5 HFD rats
Procedure: as §6, §5

rats fed high fat diet [8] = test: Experiment 5: serum levels of leptin and insulin; conditions: Exp.5 HFD rats
Procedure: as §4, §5
Serum leptin and insulin level was measured in the same manner as in Test Example 4. Leptin is a hormone secreted from the adipocyte, in proportion to body fat mass. Leptin and insulin are deeply related with energy homeostasis. Increased leptin induces hyperinsulinemia, which in turn directly stimulates the leptin mRNA in the adipocyte.

rats fed high fat diet [9] = test: Experiment 4: white adipocyte size and adipose tissue weights; conditions: Exp.4 HFD rats; after 12 weeks; AE-B 125, AE-C 100, AE-1 10, ABP 1.5 mg/kg once a day 6 weeks
Source text: as §2
A is ND Group, B is HFD-C group, C is HFD+AE-B group, D is HFD+AE-C group, E is HFD+AE-1 group and F is HFD+ABP group.
as §3

[10] = AE-1 5 mg/kg orally once a day 6 weeks
[11] = AE-1 10 mg/kg orally once a day 6 weeks
[12] = AE-1 20 mg/kg orally once a day 6 weeks

CC(C)=C1C/C=C(\C)CC/C=C(\C)CC1=O [AE-1, Germacron]
12 wk B.W (rats fed high fat diet [1]; [10]): 501.71 ± 46.64^b g
FER (food efficiency ratio) (rats fed high fat diet [1]; [10]): 0.196 ± 0.029^b
Food intake (rats fed high fat diet [1]; [10]): 17.89 ± 2.97 g/day
12 wk B.W (rats fed high fat diet [1]; [11]): 494.75 ± 45.52^b g
FER (food efficiency ratio) (rats fed high fat diet [1]; [11]): 0.189 ± 0.026^b
Food intake (rats fed high fat diet [1]; [11]): 18.24 ± 2.93 g/day
12 wk B.W (rats fed high fat diet [1]; [12]): 490.75 ± 18.27^b g
FER (food efficiency ratio) (rats fed high fat diet [1]; [12]): 0.194 ± 0.010^b
Food intake (rats fed high fat diet [1]; [12]): 17.48 ± 2.83 g/day
Glucose (serum) (rats fed high fat diet [2]): 206.60 ± 42.07^ab mg/dl
Insulin (serum) (rats fed high fat diet [2]): 1.00 ± 0.27^bc ng/ml
Leptin (serum) (rats fed high fat diet [2]): 3.88 ± 1.01^b ng/ml
HDL-cholesterol (serum) (rats fed high fat diet [3]; [10]): 48.39 ± 9.65 mg/dL
Total cholesterol (serum) (rats fed high fat diet [3]; [10]): 51.93 ± 10.29^c mg/dl
Triglyceride (serum) (rats fed high fat diet [3]; [10]): 91.51 ± 20.50^ab mg/dl
HDL-cholesterol (serum) (rats fed high fat diet [3]; [11]): 42.41 ± 8.41 mg/dL
Total cholesterol (serum) (rats fed high fat diet [3]; [11]): 62.56 ± 8.33^c mg/dl
Triglyceride (serum) (rats fed high fat diet [3]; [11]): 86.94 ± 21.93^ab mg/dl
HDL-cholesterol (serum) (rats fed high fat diet [3]; [12]): 55.80 ± 19.57 mg/dL
Total cholesterol (serum) (rats fed high fat diet [3]; [12]): 51.91 ± 14.32^c mg/dl
Triglyceride (serum) (rats fed high fat diet [3]; [12]): 91.12 ± 24.03^ab mg/dl
FFA (hepatic) (rats fed high fat diet [4]): 0.869 ± 0.25 meq/l
TC (hepatic) (rats fed high fat diet [4]): 13.74 ± 0.92^c mg/g liver
TG (hepatic) (rats fed high fat diet [4]): 2.20 ± 0.52^b mg/g liver
12 wk B.W (rats fed high fat diet [5]): 504.40 ± 28.37^b g
FER (food efficiency ratio) (rats fed high fat diet [5]): 0.137 ± 0.013^b
Food intake (rats fed high fat diet [5]): 25.82 ± 2.91 g/day
Abdominal fat (rats fed high fat diet [6]; [10]): 14.50 ± 4.43^ab g
Epididymal fat (rats fed high fat diet [6]; [10]): 11.15 ± 2.39^ab g
Total fat (rats fed high fat diet [6]; [10]): 31.09 ± 8.02^b g
Visceral fat (rats fed high fat diet [6]; [10]): 5.45 ± 2.13^b g
Abdominal fat (rats fed high fat diet [6]; [11]): 14.60 ± 2.20^ab g
Epididymal fat (rats fed high fat diet [6]; [11]): 9.97 ± 2.85^b g
Total fat (rats fed high fat diet [6]; [11]): 29.55 ± 5.25^b g
Visceral fat (rats fed high fat diet [6]; [11]): 4.98 ± 1.53^b g
Abdominal fat (rats fed high fat diet [6]; [12]): 13.76 ± 3.11^ab g
Epididymal fat (rats fed high fat diet [6]; [12]): 11.05 ± 1.44^b g
Total fat (rats fed high fat diet [6]; [12]): 29.49 ± 5.26^b g
Visceral fat (rats fed high fat diet [6]; [12]): 4.68 ± 1.78^b g
FFA (liver) (rats fed high fat diet [7]; [10]): 0.868 ± 0.28 meq/l
TC (liver) (rats fed high fat diet [7]; [10]): 12.81 ± 1.20^bcd mg/g liver
TG (liver) (rats fed high fat diet [7]; [10]): 1.95 ± 0.46^b mg/g liver
FFA (liver) (rats fed high fat diet [7]; [11]): 0.831 ± 0.30 meq/l
TC (liver) (rats fed high fat diet [7]; [11]): 12.84 ± 1.71^bcd mg/g liver
TG (liver) (rats fed high fat diet [7]; [11]): 1.81 ± 1.32^b mg/g liver
FFA (liver) (rats fed high fat diet [7]; [12]): 0.775 ± 0.25 meq/l
TC (liver) (rats fed high fat diet [7]; [12]): 12.14 ± 1.76^cd mg/g liver
TG (liver) (rats fed high fat diet [7]; [12]): 1.88 ± 0.55^b mg/g liver
Insulin (serum) (rats fed high fat diet [8]; [10]): 1.35 ± 0.28^bc ng/ml
Leptin (serum) (rats fed high fat diet [8]; [10]): 7.63 ± 1.69^b ng/ml
Insulin (serum) (rats fed high fat diet [8]; [11]): 1.06 ± 0.40^bc ng/ml
Leptin (serum) (rats fed high fat diet [8]; [11]): 6.55 ± 6.28^bc ng/ml
Insulin (serum) (rats fed high fat diet [8]; [12]): 0.98 ± 0.21^b ng/ml
Leptin (serum) (rats fed high fat diet [8]; [12]): 6.70 ± 2.58^b ng/ml
Abdominal fat pad (rats fed high fat diet [9]): 14.18 ± 4.67^b g
Epididymal fat pad (rats fed high fat diet [9]): 10.21 ± 2.69^b g

CC[C@H](/C=C/[C@@H](C)[C@H]1CC[C@H]2C3=CC[C@H]4C[C@@H](O[C@@H]5O[C@H](CO)[C@@H](O)[C@H](O)[C@H]5O)CC[C@]4(C)[C@H]3CC[C@]12C)C(C)C [ABP, α-Spinasterol 3-O-β-D-glucopyranoide]
Insulin (serum) (rats fed high fat diet [2]): 1.21 ± 0.60^bc ng/ml
Leptin (serum) (rats fed high fat diet [2]): 3.98 ± 0.95^b ng/ml
FFA (hepatic) (rats fed high fat diet [4]): 1.018 ± 0.25 meq/l
TC (hepatic) (rats fed high fat diet [4]): 17.59 ± 2.79^b mg/g liver
TG (hepatic) (rats fed high fat diet [4]): 2.65 ± 0.48^b mg/g liver
12 wk B.W (rats fed high fat diet [5]): 509.20 ± 39.54^ab g
FER (food efficiency ratio) (rats fed high fat diet [5]): 0.139 ± 0.018^b
Food intake (rats fed high fat diet [5]): 26.00 ± 3.64 g/day
Abdominal fat pad (rats fed high fat diet [9]): 14.98 ± 3.19^b g
Epididymal fat pad (rats fed high fat diet [9]): 11.55 ± 1.96^ab g

CC(C)CC(N(C)C)C1(c2ccc(Cl)cc2)CCC1 (stereo not drawn) [Sibutramine, reference compound]
12 wk B.W (rats fed high fat diet [1]; Sibutramine 7.5 mg/kg, 6 weeks): 462.00 ± 44.93^bc g
FER (food efficiency ratio) (rats fed high fat diet [1]; Sibutramine 7.5 mg/kg, 6 weeks): 0.183 ± 0.028^b
Food intake (rats fed high fat diet [1]; Sibutramine 7.5 mg/kg, 6 weeks): 16.70 ± 2.68 g/day
HDL-cholesterol (serum) (rats fed high fat diet [3]; Sibutramine 7.5 mg/kg, 6 weeks): 46.62 ± 12.21 mg/dL
Total cholesterol (serum) (rats fed high fat diet [3]; Sibutramine 7.5 mg/kg, 6 weeks): 59.79 ± 19.99^c mg/dl
Triglyceride (serum) (rats fed high fat diet [3]; Sibutramine 7.5 mg/kg, 6 weeks): 82.62 ± 26.39^ab mg/dl
Abdominal fat (rats fed high fat diet [6]; Sibutramine 7.5 mg/kg, 6 weeks): 11.44 ± 3.16^b g
Epididymal fat (rats fed high fat diet [6]; Sibutramine 7.5 mg/kg, 6 weeks): 8.75 ± 2.57^bc g
Total fat (rats fed high fat diet [6]; Sibutramine 7.5 mg/kg, 6 weeks): 25.30 ± 5.77^b g
Visceral fat (rats fed high fat diet [6]; Sibutramine 7.5 mg/kg, 6 weeks): 5.11 ± 0.89^b g
FFA (liver) (rats fed high fat diet [7]; Sibutramine 7.5 mg/kg, 6 weeks): 0.871 ± 0.68 meq/l
TC (liver) (rats fed high fat diet [7]; Sibutramine 7.5 mg/kg, 6 weeks): 13.52 ± 2.15^bc mg/g liver
TG (liver) (rats fed high fat diet [7]; Sibutramine 7.5 mg/kg, 6 weeks): 1.84 ± 0.21^b mg/g liver
Insulin (serum) (rats fed high fat diet [8]; Sibutramine 7.5 mg/kg, 6 weeks): 1.02 ± 0.33^bc ng/ml
Leptin (serum) (rats fed high fat diet [8]; Sibutramine 7.5 mg/kg, 6 weeks): 6.27 ± 1.89^bc ng/ml

Source: US20090232912A1, “Method For Preparing Extract For The Prevention and Treatment Of Hyperlipidemia and Obesity From the Extract of Aster Spathulifolius Aerial Part and Composition Containing The Same” (priority 2005, published 2009)
